# Ends that are not written are not given here.
# Legend:
# ICR mice = test: Blood glucose in normal ICR mice after intravenous UCN; assay type: in vivo, mouse; details: i.v.
# Experimental: (§1) The inserted immunoblot data is about IR phosphorylation by UCN in skeletal muscle. Mice were injected (intravenously) with either vehicle (0.1% BSA in saline) or UCN (0.1-100 μM). Values are the mean±S.D. for four control and four UCN-treated mice. […] The inserted immunoblot data was about IR phosphorylation by treatment of UCN in skeletal muscle of STZ mouse. Mice were injected (intravenously) with vehicle (0.1% BSA in saline), UCN (0.1 μM) and/or insulin (1 nM). And plasma levels of glucose were measured during 45 min. Values are the mean±S.D. for six mice each group. *, P<0.05.
# For prepare the normal test animal, male Institute of Cancer Research (ICR) mice weighing 20-25 g, aged 8 weeks, were obtained from the Hyochang Science were housed four to cage in a temperature- and light-controlled room (20-22° C.; 12-hrs light, 12-hrs dark cycle; lights on at 07:00 hr) and were provided with regular diet chow and water ad libitum. The laboratory procedures used conformed to the guidelines of the Korea Government Guide for the Care of Use of Laboratory Animals. In the in vivo study, after fasting overnight, mice were injected to intravenous vein with 0.1% BSA saline or UCN, then plasma glucose was measured on a time by glucose analyzer (model AGM-2100, allmedicus Inc., anyang, Korea)
# insulin receptor (IR) [1] = test: IR autophosphorylation in hIRcB cells; assay type: cell-based, human
# Experimental: FIG. 12A shown a comparison of insulin sensitizing effect among CRF family which was obtained by incubating cells with 1 μM CRF family and/or 2 nM insulin or with medium alone for 1 min. […] FIG. 12B was obtained by incubating cells with 2 nM insulin and variant dose of UCN (from 2 nM to 1 μM) for 1 min. FIG. 12C was obtained by incubating cells 100 nM UCN and variant dose of insulin for 1 min. Phosphorlyation of IR was assessed by western blotting with anti-pTyr antibodies. FIG. 13D was obtained by incubating cells with 100 nM UCN and/or 10 nM insulin for 0, 2, 10, 30, and 60 min, and then assessing the phosphorlyation of IR by western blotting with anti-pIR antibodies. Quantization of IR autophosphorylation was measured with image gauge software (Fuji film). The values are the mean±S.E. for three experiments. *, P<0.05
# hIRcB cells were maintained in DMEM, supplemented with 10% (v/v) FBS. The cells were grown at 37° C. in a humidified atmosphere of 5% CO2 and 95% air.
# After treatment of ligands as indicated time and dose, the cells were washed with cold PBS and lysed with lysis buffer (50 mM HEPES pH 7.5, 150 mM NaCl, 1%
# Triton X-100, 1 mM EDTA, 10% glycerol) containing protease inhibitors (0.5 mM PMSF, 1 μg/ml leupeptin and 5 μg/ml aprotinin) and phosphatase inhibitors (30 mM NaF, 1 mM Na3VO4 and 30 mM Na4O7P2). The cell lysates were incubated for 1 hr at 4° C. After centrifugation (14,000×g for 15 min), equal amounts of soluble extract were incubated, for 4 hrs, with 5 μg of anti-IR antibody and 30 μl of resin volume of immobilized protein A. For gel electrophoresis, the precipitates were dissolved in Laemmli sample buffer. The sample was separated by SDS-PAGE and transferred to a nitrocellulose membrane (Schleicher and Schuell, BA85). Blocking was performed with TTBS buffer (10 mM Tris/HCl, pH 7.5, 150 mM NaCl, and 0.05% Tween 20) containing 5% skimmed milk powder. The membrane was probed with primary for 3 hrs at room temperature. Subsequently the immunoblot was washed and incubated with horseradish peroxidase-linked secondary antibody for 1 hr at room temperature, rinsed four times in TTBS buffer, and developed with horseradish peroxidase-dependent chemiluminescence reagents (Amersham International, United Kingdom).
# C2C12 myotubules = test: Glucose uptake in C2C12 myotubules (UCN); assay type: cell-based; details: in the presence of UCN
# Experimental: (§2) UCN enhanced insulin-induced glucose uptake and phosphorylation of IR, IRS and Akt. Myotubules were incubated with 2 nM UCN and/or variant insulin dose (0-50 nm) for 1 min (Inserted immunoblot data). Phosphorylation of IRS and Akt was assessed by western blot analysis with anti-pIRS and anti-pAkt antibodies. Glucose uptake was determined as below.
# (§3) C2C12 cells were maintained in DMEM, supplemented with 10% (v/v) FBS. The cells were grown at 37° C. in a humidified atmosphere of 5% CO2 and 95% air. For the differentiation of C2C12 cells, growing media was changed to DMEM, supplemented with 2% (v/v) ES and cultured for 7 days.
# After differentiation, cells were washed and incubated during 3 hrs with 2 ml Krebs-Ringer phosphate (KRP) containing 130 mM NaCl, 5 mM KCl, 1.3 mM CaCl2.2H2O, 1.3 mM MgSO4.7H2O, and 10 mM Na2HPO4.7H2O, pH 7.4. To determine the effect of UCN on glucose uptake, 10 min incubation in 1 ml of KRP at indicated conditions was carried out. The reaction was performed by adding a mixture of [^14C] 2-DG (1 μCi/ml) and non-radioactive 2-DG (final concentration of 20 mM) for 10 min. […] Cell-associated radioactivity was determined by lysing the cells in 1 N NaOH and followed by scintillation counting. Non-specific uptake was measured by incubating the cells with cytochalasin B (20 μM/ml). […]
# insulin receptor (IR) [2] = test: IR phosphorylation in mouse skeletal muscle; assay type: in vivo; details: soleus muscle, 15 min after i.v. injection
# Experimental: After fasting overnight, mice were injected iv with agonist. After 15 min, mice were killed by soleus muscles were rapidly excised and were immediately frozen in liquid nitrogen. Lysates were prepared by homogenizing the tissues in lysis buffer (50 mM HEPES pH 7.5, 150 mM NaCl, 1% Triton X-100, 1 mM EDTA, 10% glycerol) containing protease inhibitors (0.5 mM PMSF, 1 μg/ml leupeptin and 5 μg/ml aprotinin) and phosphatase inhibitors (30 mM NaF, 1 mM Na3VO4 and 30 mM Na4O7P2). Debris was removed by centrifugation at 14,000 rpm for 10 min at 4° C. Immunoprecipitation and Western blots were performed as previously described.
# IR, IRS and Akt = test: Phosphorylation of IR, IRS and Akt in C2C12 myotubules; assay type: cell-based
# Experimental: as §2, §3
# Immunoprecipitation and immunoblot was performed according to the method of EXAMPLE 8.
# STZ-mouse = test: Blood glucose in STZ mice after intravenous UCN and/or insulin; assay type: in vivo
# Experimental: as §1
# For preparing STZ-mouse, male Institute of Cancer Research (ICR) mice weighing 20-25 g, aged 8 weeks, were obtained from the Hyochang Science. STZ-induced diabetic mice were prepared by administering an intraperineal injection of STZ (Sigma Chemical, St. Louis, Mo.) (75 mg/kg) to male ICR mice after the animals were fasted for 1 day. And the next day had one more injection of STZ. Mice with plasma glucose concentrations ≧280 mg/dl were considered to have type 1 diabetes. All tests were carried out 3 days after the injection of STZ.
substance,measurement,setting,value
"urocortin (DNPSLSIDLTFHLLRTLLELARTQSQRERAEQNRIIFDSV; ends and bridges not checked; UniProt P55089 83-122, looked up) [UCN, a 40 amino acid peptide as a member of the corticotrophin release factor (CRF) family]","blood glucose level, UCN alone",ICR mice; 0.1 μM UCN,down-regulated the blood glucose level
same,"blood glucose level, UCN alone",ICR mice; from 100 pM up,enhanced blood glucose level
same,insulin-mediated IR phosphorylation,"insulin receptor (IR) [1]; 1 μM CRF family peptide with 2 nM insulin, 1 min, hIRcB cells",potentate insulin-mediated IR phosphorylation
same,dose and time dependence of insulin sensitizing effect,"insulin receptor (IR) [1]; UCN 2 nM to 1 μM with 2 nM insulin, 100 nM UCN with 10 nM insulin 0-60 min","increased in dose (12B,12C) and time (12D) dependent manner"
same,potency in potentiating insulin-mediated IR phosphorylation compared with CRF,insulin receptor (IR) [1]; hIRcB cells,more potent
same,IR phosphorylation by peptide alone,"insulin receptor (IR) [1]; without insulin, hIRcB cells",no effect on IR phosphorylation
same,insulin-stimulated glucose uptake,C2C12 myotubules,significantly increased
same,insulin-induced IR phosphorylation in mouse skeletal muscle,insulin receptor (IR) [2],significantly sensitized insulin-induced IR phosphorylation
same,"insulin-induced phosphorylation of IR, IRS and Akt","IR, IRS and Akt; 2 nM UCN and/or insulin 0-50 nm, 1 min",enhanced
same,insulin-induced phosphorylation of IR,"IR, IRS and Akt; in the presence of UCN, C2C12 myotubules",enhanced
same,"change of blood glucose level, UCN alone","STZ-mouse; UCN (0.1 μM) i.v., 45 min",no effect on the change of blood glucose level
same,"blood glucose level, UCN co-injected with insulin",STZ-mouse; UCN co-injected with inactive concentration of insulin (1 nM),significantly decreased
